# Reference: article PMC8584349 (International Journal of Molecular Sciences, 2021)
# Read-outs that look alike come from different tables or passages of the source.
# What was measured:
# [1] = tested on: MERS-CoV PsV; details: in 25-HC/EK1 combination versus alone
# [2] = tested on: MERS-CoV PsV; assay: microbe, parasite or virus in culture; details: Middle East respiratory syndrome-related coronavirus
# [3] = tested on: SARS-CoV-2 PsV
# [4] = tested on: SARS-CoV-2 PsV; assay: microbe, parasite or virus in culture; format: cell-based; details: Severe acute respiratory syndrome coronavirus 2; target cells pretreated with 25-HC 8–12 h; luciferase; read-out: IC50, inhibition of SARS-CoV-2 PsV infection
# [5] = tested on: SARS-CoV-2 PsV; assay: microbe, parasite or virus in culture
# [6] = tested on: SARS-CoV PsV; assay: microbe, parasite or virus in culture; format: cell-based; details: Severe acute respiratory syndrome coronavirus, read-out: IC50, inhibition of SARS-CoV PsV infection
# [7] = tested on: authentic HCoV-229E; assay: microbe, parasite or virus in culture; format: cell-based; details: Human coronavirus 229E; Huh-7 cell line; cells pretreated with 25-HC 8–12 h; CCK-8; read-out: IC50, inhibition of authentic HCoV-229E infection
# [8] = tested on: authentic HCoV-OC43; assay: Authentic virus inhibition assay, HCoV-OC43 in RD cells; format: cell-based; details: RD cell line, CCK8, triplicate, repeated twice, read-out: IC50, inhibition of HCoV-OC43 replication
# Experimental: (§1) Inhibition of authentic coronaviruses was performed as previously reported. Briefly, authentic HCoV-OC43 or HCoV-229E was coincubated with a test peptide at different concentrations at 37 °C for 30 min. Then, these authentic virus–peptide mixtures were added into target cells in a 96-well plate (Huh-7 cell line for HCoV-229E, RD cell line for HCoV-OC43). CCK8 solution was used to assess virus-induced cytopathy when the cytopathic effect (CPE) of DMSO-treated target cells was clear and the IC50 value was calculated.
# [9] = tested on: SARS-CoV PsV; details: 12 h
# [10] = tested on: SARS-CoV-2 VOC PsVs; details: 12 h
# [11] = tested on: authentic HCoV-229E; assay: Authentic virus inhibition assay, HCoV-229E in Huh-7 cells; format: cell-based; details: Huh-7 cell line, CCK8, triplicate, repeated twice, read-out: IC50, inhibition of HCoV-229E replication
# Experimental: as §1
SMILES,dose reduction [1] [fold],"IC50 ([2]; read-out: IC50, tested alone) [nM]","IC50 ([2]; read-out: IC50, tested in EK1/25-HC combination) [nM]","dose reduction ([3]; SARS-CoV-2 PsV, in 25-HC/EK1 combination versus alone) [fold]",IC50 [4] [nM],"IC50 ([5]; Severe acute respiratory syndrome coronavirus 2, read-out: IC50, tested alone) [nM]","IC50 ([5]; Severe acute respiratory syndrome coronavirus 2, read-out: IC50, tested in EK1/25-HC combination) [nM]",IC50 [6] [nM],IC50 [7] [nM],IC50 [8] [nM],"IC50 ([3]; PsV, 12 h) [nM]",IC50 [9] [nM],IC50 [10] [nM],IC50 [11] [nM]
"C[C@H](CCCC(C)(C)O)[C@H]1CC[C@H]2[C@@H]3CC=C4C[C@@H](O)CC[C@]4(C)[C@H]3CC[C@]12C [25-HC, 25-Hydroxycholesterol]",4,6800,1600,3,4110,9300,3700,2790,5350,,,,,
CC[C@H](C)[C@H](NC(=O)[C@H](C)NC(=O)[C@H](CCC(=O)O)NC(=O)[C@H](CCC(=O)O)NC(=O)[C@H](CC(C)C)NC(=O)[C@H](CCCCN)NC(=O)[C@H](CCCCN)NC(=O)[C@H](CCSC)NC(=O)[C@H](CCC(=O)O)NC(=O)[C@H](Cc1ccc(O)cc1)NC(=O)[C@H](CCC(=O)O)NC(=O)[C@H](CC(C)C)NC(=O)[C@H](CC(=O)O)NC(=O)[C@H](CC(C)C)NC(=O)[C@H](Cc1ccccc1)NC(=O)[C@@H](NC(=O)[C@@H](NC(=O)[C@H](CC(N)=O)NC(=O)[C@@H](NC(=O)[C@H](CCC(N)=O)NC(=O)[C@H](CC(=O)O)NC(=O)[C@H](CC(C)C)NC(=O)[C@@H](N)CO)[C@@H](C)CC)C(C)C)[C@@H](C)O)C(=O)N[C@@H](CCCCN)C(=O)N[C@@H](CCCCN)C(=O)N[C@@H](CC(C)C)C(=O)N[C@@H](CCC(=O)O)C(=O)N[C@@H](CCC(=O)O)C(=O)N[C@@H](CO)C(=O)N[C@@H](Cc1ccc(O)cc1)C(=O)N[C@H](C(=O)N[C@@H](CC(=O)O)C(=O)N[C@@H](CC(C)C)C(=O)N[C@@H](CCCCN)C(=O)N[C@@H](CCC(=O)O)C(=O)N[C@@H](CC(C)C)C(=O)O)[C@@H](C)CC [EK1],,,,,,,,,,1510,840,2800,480 to 4610,2200
